Measured values from US20230338378A1, “Methods of Administering Myosin Inhibitors” (MYOKARDIA, INC., priority 2022, published 2023).
Like-named read-outs stand apart in the source and are kept apart here.

Key:
CYP1A2 = CYP1A2 (Homo sapiens, UniProt P05177); assay: In vitro CYP inhibition; assay type: in vitro ADME; details: In Vitro Studies
lymphocyte = assay: Human in vitro lymphocyte clastogenicity assay; assay type: cell-based
P-gp = P-gp (Homo sapiens, UniProt P08183); assay: In vitro transporter inhibition; assay type: in vitro ADME; details: In Vitro Studies
[1] = tested on: adults with symptomatic NYHA class II and III obstructive HCM; details: phase 3 EXPLORER-HCM, oHCM patient population (Olivotto et al., 2020); cited from earlier work
CYP2C9 [2] = target: T1, CYP2C9 (Homo sapiens, UniProt P11712); assay: In vitro CYP inhibition; assay type: in vitro ADME; details: In Vitro Studies; clinically relevant concentrations
T1 sequence (P11712 whole entry): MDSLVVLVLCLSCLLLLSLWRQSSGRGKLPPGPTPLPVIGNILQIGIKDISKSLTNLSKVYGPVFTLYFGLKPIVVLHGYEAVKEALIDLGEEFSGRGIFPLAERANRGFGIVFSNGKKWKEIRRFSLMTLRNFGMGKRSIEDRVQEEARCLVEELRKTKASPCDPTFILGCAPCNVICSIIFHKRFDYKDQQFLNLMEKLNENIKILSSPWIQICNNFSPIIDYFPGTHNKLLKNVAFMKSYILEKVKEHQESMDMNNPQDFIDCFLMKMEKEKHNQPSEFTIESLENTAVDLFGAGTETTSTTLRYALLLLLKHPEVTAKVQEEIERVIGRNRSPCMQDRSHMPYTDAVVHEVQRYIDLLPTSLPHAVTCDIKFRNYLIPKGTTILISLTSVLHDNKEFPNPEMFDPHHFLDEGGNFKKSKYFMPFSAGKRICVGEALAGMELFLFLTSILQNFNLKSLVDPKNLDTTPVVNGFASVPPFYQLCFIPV

[3] = Clinical pharmacokinetics of mavacamten; assay type: in vivo, human; details: for half-life: plasma, read-out: terminal half-life (converted)
CYP2C19 [4] = target: T2, CYP2C19 (Homo sapiens, UniProt P33261); assay: Concomitant use with weak CYP2C19 inhibitor omeprazole; assay type: in vivo; parameters: Mavacamten is hepatically metabolized predominantly via CYP2C19 (74%), CYP3A4 (18%) and CYP2C9 (8%); from tissue; host or cells: liver of human subjects in vivo, or a Simcyp virtual population; details: mavacamten 15 mg with omeprazole 20 mg once daily; healthy CYP2C19 NMs and RMs
T2 sequence (P33261 whole entry): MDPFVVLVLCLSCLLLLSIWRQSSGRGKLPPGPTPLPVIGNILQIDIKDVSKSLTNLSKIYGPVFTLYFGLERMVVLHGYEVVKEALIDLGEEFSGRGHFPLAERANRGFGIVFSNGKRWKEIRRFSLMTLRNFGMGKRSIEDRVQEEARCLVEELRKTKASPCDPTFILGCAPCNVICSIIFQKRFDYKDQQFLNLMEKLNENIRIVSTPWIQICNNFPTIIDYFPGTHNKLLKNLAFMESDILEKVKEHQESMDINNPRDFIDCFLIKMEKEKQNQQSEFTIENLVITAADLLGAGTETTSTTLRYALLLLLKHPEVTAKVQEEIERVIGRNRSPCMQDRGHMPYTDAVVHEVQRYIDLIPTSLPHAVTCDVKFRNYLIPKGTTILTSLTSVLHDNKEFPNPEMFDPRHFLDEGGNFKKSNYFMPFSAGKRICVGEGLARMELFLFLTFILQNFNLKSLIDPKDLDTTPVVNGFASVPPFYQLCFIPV

CYP3A4 = CYP3A4 (Homo sapiens, UniProt P08684); assay: Metabolism through CYP enzymes
Sequence of CYP3A4 (P08684 whole entry): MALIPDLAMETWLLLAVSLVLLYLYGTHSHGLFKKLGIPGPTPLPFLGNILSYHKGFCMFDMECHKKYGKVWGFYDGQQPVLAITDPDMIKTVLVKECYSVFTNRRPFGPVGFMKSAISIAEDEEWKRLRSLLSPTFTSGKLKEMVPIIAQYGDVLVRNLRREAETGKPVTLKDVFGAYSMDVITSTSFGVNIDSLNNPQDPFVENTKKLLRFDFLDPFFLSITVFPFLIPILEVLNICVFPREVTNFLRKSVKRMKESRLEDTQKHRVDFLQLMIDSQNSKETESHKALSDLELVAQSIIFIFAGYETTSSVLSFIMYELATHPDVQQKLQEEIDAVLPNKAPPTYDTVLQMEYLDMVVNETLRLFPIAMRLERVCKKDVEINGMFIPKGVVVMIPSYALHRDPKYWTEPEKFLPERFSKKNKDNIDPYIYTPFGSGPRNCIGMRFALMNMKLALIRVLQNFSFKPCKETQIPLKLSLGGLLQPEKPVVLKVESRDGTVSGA

rasH2 transgenic mouse = assay: 6-month rasH2 transgenic mouse carcinogenicity study; assay type: in vivo
rats = assay: Oral animal toxicology at multiple dose levels; assay type: in vivo
Protocol: (§1) The safety of mavacamten has been evaluated in rats and dogs at multiple dose levels (0.06 to 10 mg/kg/day) orally. […] Plasma exposures (AUC) at the NOAEL in rats and dogs were 0.1 and 0.3 times, respectively, human exposure (AUC) at the MRHD.

dogs = assay: Oral animal toxicology at multiple dose levels; assay type: in vivo
Protocol: as §1

BSEP = BSEP (Homo sapiens, UniProt O95342); assay: In vitro transporter inhibition; assay type: in vitro ADME; details: In Vitro Studies
Sequence of BSEP (O95342 whole entry): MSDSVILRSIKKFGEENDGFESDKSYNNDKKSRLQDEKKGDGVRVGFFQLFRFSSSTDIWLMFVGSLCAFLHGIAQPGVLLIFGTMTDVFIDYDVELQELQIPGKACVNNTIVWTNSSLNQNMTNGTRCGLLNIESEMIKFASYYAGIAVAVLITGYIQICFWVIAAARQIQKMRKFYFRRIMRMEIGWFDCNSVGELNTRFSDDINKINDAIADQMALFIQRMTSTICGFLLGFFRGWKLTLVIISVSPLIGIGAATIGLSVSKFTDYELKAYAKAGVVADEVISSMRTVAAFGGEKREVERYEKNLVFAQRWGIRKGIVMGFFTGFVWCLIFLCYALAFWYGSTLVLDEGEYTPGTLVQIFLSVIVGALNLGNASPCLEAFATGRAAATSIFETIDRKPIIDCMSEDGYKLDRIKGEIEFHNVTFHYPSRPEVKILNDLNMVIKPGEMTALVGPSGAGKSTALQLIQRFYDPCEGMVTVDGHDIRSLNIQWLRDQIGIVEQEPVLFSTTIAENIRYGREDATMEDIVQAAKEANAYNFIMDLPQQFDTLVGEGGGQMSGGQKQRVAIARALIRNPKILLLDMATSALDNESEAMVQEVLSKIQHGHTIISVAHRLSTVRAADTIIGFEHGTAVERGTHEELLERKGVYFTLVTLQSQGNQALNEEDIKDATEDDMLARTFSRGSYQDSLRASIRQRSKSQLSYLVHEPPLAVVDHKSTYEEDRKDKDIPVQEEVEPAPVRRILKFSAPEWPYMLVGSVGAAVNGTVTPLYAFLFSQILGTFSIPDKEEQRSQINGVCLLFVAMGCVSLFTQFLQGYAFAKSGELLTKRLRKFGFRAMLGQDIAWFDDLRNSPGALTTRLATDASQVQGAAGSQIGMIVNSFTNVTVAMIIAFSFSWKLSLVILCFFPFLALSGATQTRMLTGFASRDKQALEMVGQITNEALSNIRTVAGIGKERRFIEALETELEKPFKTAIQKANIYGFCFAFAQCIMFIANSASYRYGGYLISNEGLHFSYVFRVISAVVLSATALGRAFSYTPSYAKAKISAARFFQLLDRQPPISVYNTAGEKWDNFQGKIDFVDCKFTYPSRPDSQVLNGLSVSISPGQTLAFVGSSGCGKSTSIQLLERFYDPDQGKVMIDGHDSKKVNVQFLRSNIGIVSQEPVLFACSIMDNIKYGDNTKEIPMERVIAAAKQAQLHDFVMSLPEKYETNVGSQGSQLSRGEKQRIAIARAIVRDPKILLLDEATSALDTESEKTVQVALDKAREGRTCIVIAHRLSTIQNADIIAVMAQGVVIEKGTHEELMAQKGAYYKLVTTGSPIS

CYP2C19, CYP3A4 = assay: Established and Potentially Significant Pharmacokinetic Drug Interactions with MAVACAMTEN (Table 1); details: Concomitant use with a moderate to strong CYP2C19 inducer or a moderate to strong CYP3A4 inducer
[5] = Excretion after a single 25 mg dose of radiolabeled mavacamten; assay type: in vivo; details: single 25 mg dose of radiolabeled mavacamten
Protocol: Following a single 25 mg dose of radiolabeled mavacamten, 7% of the dose was recovered in feces (1% unchanged) and 85% in urine (3% unchanged).

[6] = tested on: organic anion transporting polypeptides (OATPs); assay: In vitro transporter inhibition; assay type: in vitro ADME; details: In Vitro Studies
CYP2C19 [7] = target: T2, CYP2C19; assay: In vitro CYP inhibition; assay type: in vitro ADME; details: In Vitro Studies; clinically relevant concentrations
CYP2D6 = CYP2D6 (Homo sapiens, UniProt P10635); assay: In vitro CYP inhibition; assay type: in vitro ADME; details: In Vitro Studies; clinically relevant concentrations
Sequence of CYP2D6 (P10635 whole entry): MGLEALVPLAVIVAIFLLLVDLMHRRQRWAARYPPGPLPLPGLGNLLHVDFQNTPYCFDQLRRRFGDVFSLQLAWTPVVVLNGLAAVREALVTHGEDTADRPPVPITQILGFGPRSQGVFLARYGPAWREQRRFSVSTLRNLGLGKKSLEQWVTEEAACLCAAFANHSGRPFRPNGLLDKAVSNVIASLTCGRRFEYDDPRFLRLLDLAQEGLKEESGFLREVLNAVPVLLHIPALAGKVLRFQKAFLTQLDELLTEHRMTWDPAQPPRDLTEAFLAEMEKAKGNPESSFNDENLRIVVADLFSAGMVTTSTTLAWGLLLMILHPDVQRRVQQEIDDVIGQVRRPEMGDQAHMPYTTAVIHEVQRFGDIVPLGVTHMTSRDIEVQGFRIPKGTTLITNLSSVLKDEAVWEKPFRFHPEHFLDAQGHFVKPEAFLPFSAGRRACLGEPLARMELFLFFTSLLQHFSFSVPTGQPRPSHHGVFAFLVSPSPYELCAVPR

pregnant rats = assay: Embryo-fetal development study in pregnant rats; assay type: in vivo, rat
Source text: Plasma exposure (based on area under the concentration-time curve or AUC) at the no-effect dose for embryo-fetal development in rats is 0.3 times the exposure in humans at the MRHD.

[8] = tested on: organic anion transporters (OATs); assay: In vitro transporter inhibition; assay type: in vitro ADME; details: In Vitro Studies
BCRP = BCRP (Homo sapiens, UniProt Q9UNQ0); assay: In vitro transporter inhibition; assay type: in vitro ADME; details: In Vitro Studies
Sequence of BCRP (Q9UNQ0 whole entry): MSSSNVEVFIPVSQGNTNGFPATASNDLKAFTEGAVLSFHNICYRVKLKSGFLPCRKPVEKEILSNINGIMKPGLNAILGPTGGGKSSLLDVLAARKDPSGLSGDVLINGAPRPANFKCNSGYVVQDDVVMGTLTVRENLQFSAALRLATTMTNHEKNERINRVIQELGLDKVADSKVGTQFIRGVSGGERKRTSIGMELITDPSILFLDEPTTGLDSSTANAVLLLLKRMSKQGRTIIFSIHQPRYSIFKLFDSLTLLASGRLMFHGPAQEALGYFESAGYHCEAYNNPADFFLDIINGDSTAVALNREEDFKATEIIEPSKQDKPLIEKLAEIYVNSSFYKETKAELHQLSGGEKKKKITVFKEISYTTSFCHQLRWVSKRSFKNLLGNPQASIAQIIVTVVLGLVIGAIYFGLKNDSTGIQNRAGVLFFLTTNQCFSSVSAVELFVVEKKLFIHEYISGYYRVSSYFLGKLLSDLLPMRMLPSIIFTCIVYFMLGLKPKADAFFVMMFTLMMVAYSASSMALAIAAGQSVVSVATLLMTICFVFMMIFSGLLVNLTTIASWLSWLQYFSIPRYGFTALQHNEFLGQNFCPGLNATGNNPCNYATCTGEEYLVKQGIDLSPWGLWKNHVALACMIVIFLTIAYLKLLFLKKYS

pregnant rabbits = assay: Embryo-fetal development study in pregnant rabbits; assay type: in vivo, rabbit
Protocol: Visceral findings consisted of malformations of the great vessels (dilatation of pulmonary trunk and/or aortic arch). Skeletal malformations consisted of higher incidences of fused sternebrae at ≥1.2 mg/kg/day. Plasma exposure (AUC) at the no-effect dose for embryo-fetal development in rabbits is 0.4 times the exposure in humans at the MRHD.

CYP2C9 [9] = target: T1, CYP2C9; assay: Metabolism through CYP enzymes
Solubility = assay type: physicochemical

Sequence of CYP1A2 (P05177 whole entry): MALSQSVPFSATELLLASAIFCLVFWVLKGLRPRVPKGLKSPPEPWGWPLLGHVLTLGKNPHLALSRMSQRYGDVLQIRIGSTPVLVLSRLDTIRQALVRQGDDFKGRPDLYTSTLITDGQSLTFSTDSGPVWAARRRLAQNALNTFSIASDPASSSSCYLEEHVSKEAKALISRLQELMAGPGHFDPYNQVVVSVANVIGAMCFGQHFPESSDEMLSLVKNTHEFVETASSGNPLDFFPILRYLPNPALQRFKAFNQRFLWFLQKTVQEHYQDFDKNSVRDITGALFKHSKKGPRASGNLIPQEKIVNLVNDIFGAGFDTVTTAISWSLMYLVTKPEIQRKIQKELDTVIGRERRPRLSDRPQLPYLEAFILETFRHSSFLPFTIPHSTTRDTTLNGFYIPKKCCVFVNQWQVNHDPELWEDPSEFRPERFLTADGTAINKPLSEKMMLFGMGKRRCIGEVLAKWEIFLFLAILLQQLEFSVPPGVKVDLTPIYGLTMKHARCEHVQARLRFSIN

## CC(C)n1c(=O)cc(N[C@@H](C)c2ccccc2)[nH]c1=O [mavacamten, (S)-3-Isopropyl-6-((1-phenylethyl)amino)pyrimidine-2,4(1H,3H)-dione]
CYP1A2
  inhibition of CYP1A2: does not inhibit
lymphocyte
  genotoxicity: not genotoxic
P-gp
  inhibition of P-gp: does not inhibit
[1]
  LVOT gradients, symptoms, exercise performance and health status: effective in reducing LVOT gradients and improving symptoms, exercise performance and health status
CYP2C9 [2]
  inhibition of CYP2C9: not an inhibitor
[3]; CYP2C19 NMs
  accumulation ratio for AUC: about 7 fold
  accumulation ratio for Cmax: about 2 fold
[3]; Effect of Food
  pharmacokinetics with a high fat meal: No clinically significant differences
[3]; Specific Populations
  pharmacokinetics by age (18-82 years), sex, race, ethnicity, or mild to moderate renal impairment: No clinically significant differences
[3]; human, in vivo, oral, read-out: time to maximum concentration (Tmax)
  Tmax: 1 h
[3]; human, in vivo, po, read-out: estimated oral bioavailability
  bioavailability: ≥ 85%
[3]; human, oral, CYP2C19 normal metabolizers (NMs)
  half-life: 144 to 216 h
[3]; human, oral, CYP2C19 poor metabolizers (PMs)
  half-life: 552 h
[3]; multiple once-daily doses of 1 mg to 15 mg
  exposure vs dose: increases generally dose proportionally
[3]; same dose level
  higher exposures in patients with HCM compared to healthy subjects: 170%
[3]; steady-state, once daily dosing
  peak-to-trough plasma concentration ratio: approximately 1.5
CYP2C19 [4]
  effect on mavacamten Cmax: no effect
  mavacamten AUCinf increase: 48%
CYP3A4
  metabolized through CYP3A4: 18%
rasH2 transgenic mouse; 6-month rasH2 transgenic mouse, up to 2.0 mg/kg/day in males and 3.0 mg/kg/day in females
  carcinogenicity: no evidence of carcinogenicity
rasH2 transgenic mouse; females, 3.0 mg/kg/day
  exposure (AUC) compared to AUC exposures in humans at the MRHD: 3 fold
rasH2 transgenic mouse; males, 2.0 mg/kg/day
  exposure (AUC) compared to AUC exposures in humans at the MRHD: 1.8 fold
rats
  Other findings: cardiac osseous metaplasia
  Plasma exposure (AUC) at the NOAEL vs human exposure (AUC) at the MRHD: 0.1 times
  heart weights: increased heart weights
rats; 0.06 to 10 mg/kg/day orally
  Noted toxicities: echocardiographic findings, reduction in systolic function, cardiac dilation, and death
dogs
  Other findings: QTc prolongation
  Plasma exposure (AUC) at the NOAEL vs human exposure (AUC) at the MRHD: 0.3 times
dogs; 0.06 to 10 mg/kg/day orally
  Noted toxicities: echocardiographic findings, reduction in systolic function, cardiac dilation, and death
BSEP
  inhibition of BSEP: does not inhibit
CYP2C19, CYP3A4
  Clinical Impact on mavacamten exposure: moderate to strong CYP3A4 inducer decreases mavacamten exposure,
[5]
  dose recovered in feces: 7%
  dose recovered in feces unchanged: 1%
  dose recovered in urine: 85%
  dose recovered in urine unchanged: 3%
[6]
  inhibition of OATPs: does not inhibit
CYP2C19 [7]
  inhibition of CYP2C19: not an inhibitor
CYP2D6
  inhibition of CYP2D6: not an inhibitor
Pregnant rats; pregnant rats, oral, period of organogenesis, high dose group (1.5 mg/kg/day)
  embryo-fetal findings: increases in post-implantation loss, decreases in mean fetal body weight, reductions in fetal ossification of bones, and fetal malformations (visceral and skeletal) were observed
Pregnant rats; rats
  Plasma exposure (AUC) at the no-effect dose for embryo-fetal development vs exposure in humans at the MRHD: 0.3 times
[8]
  inhibition of OATs: does not inhibit
BCRP
  inhibition of BCRP: does not inhibit
Pregnant rabbits; pregnant rabbits, oral, period of organogenesis, doses of 1.2 mg/kg/day and higher
  embryo-fetal findings: fetal malformations (visceral and skeletal) were increased
Pregnant rabbits; rabbits
  Plasma exposure (AUC) at the no-effect dose for embryo-fetal development vs exposure in humans at the MRHD: 0.4 times
CYP2C9 [9]
  metabolized through CYP2C9: 8%
Solubility; DMSO and NMP
  solubility: freely soluble
Solubility; methanol and ethanol
  solubility: sparingly soluble
Solubility; water and aqueous buffers at pH 2-10
  solubility: practically insoluble
